Laboratory results: paper PMC9598656, “In Vitro Activity of Robenidine Analogues NCL259 and NCL265 against Gram-Negative Pathogens” (Antibiotics, 2022)
Read-outs that look alike come from different tables or passages of the source.

Key:
A. baumannii ATCC 12457 = test: MIC, broth micro-dilution; assay type: cell-based, Acinetobacter baumannii; details: Acinetobacter baumannii, ATCC12457, read-out: MIC, Single Drug
Method: (§1) A variety of Gram-negative reference strains (E. coli ATCC 25922, E. coli ATCC 10763, P. aeruginosa PAO1, P. aeruginosa ATCC 27853, A. baumannii ATCC 12457, A. baumannii ATCC 19606, K. pneumoniae ATCC 4352 and K. pneumoniae ATCC 33495) were used for initial screening and combination testing with PMB. The organisms were speciated using biochemical testing and MALDI-TOF mass spectrometry (Bruker, Preston, VIC, Australia). Activity testing of NCL259 and NCL265 was also carried out on 51 extraintestinal clinical E. coli isolates from companion animals, and 83 porcine and bovine enterotoxigenic E. coli (ETEC) isolates from the Australian Centre for Antimicrobial Resistance Ecology collection. E. coli wild-type (BW 25113) and its mutant BW 25113∆AcrB, in which the inner membrane component AcrB of the tripartite multidrug efflux system AcrA/AcrB/TolC has been deleted, were obtained from the bacterial collection held at Health and Biomedical Innovation, Clinical and Health Sciences, The University of South Australia. All isolates were cultured on sheep blood agar (SBA) plates at 37 °C for 18 h before being subcultured into Luria Bertaini (LB) (Oxoid, Scoresby, VIC, Australia) broth and grown to A600nm = 0.5 (equivalent to approx. 1.5 × 10^8 colony-forming units (CFU)/mL).
(§2) MICs for NCL259 and NCL265 (serial two-fold dilutions commencing at 256 µg/mL) were determined (in duplicate) in round bottom 96–well microtitre trays (Sarstedt 82.1582.001), using the broth micro-dilution method recommended by the Clinical and Laboratory Standards Institute (CLSI). We have shown previously that robenidine can chelate calcium ions from cation-adjusted Mueller-Hinton broth, which causes the loss of activity of robenidine. Therefore, LB broth was used in this study. Additionally, considering the low solubility of robenidine and its analogues in aqueous solutions, two-fold serial dilutions of stock solutions of these compounds were prepared in 100% DMSO [21]. The MIC for ampicillin against each isolate was determined for each test to serve as an internal quality control. The MICs of isolates were determined by visual reading and using an EnSpire Multimode Plate Reader 2300 at A600nm.

P. aeruginosa ATCC 27853 = test: Checkerboard assay with PMB; assay type: cell-based, Pseudomonas aeruginosa; details: for MIC, Combination: NCL259 or NCL265 with PMB; for Combination Effect / FICI: with PMB
Method: (§3) MICs of NCL259 or NCL265 in the presence of the efflux pump inhibitor, PAβN were determined using a checkerboard assay. […] Briefly, a two-fold serial dilution of each antimicrobial solution was prepared in its appropriate solvent (e.g., DMSO for robenidine analogues and Milli-Q water for PAβN), and 1 μL of each dilution was added from wells 12 to 3 (12.8–0.25 μg/mL for robenidine analogues, and 32–2 μg/mL for PAβN). Thereafter, 89 μL of LB broth was added to each well followed by the addition of 10 μL of bacterial suspension (1–5 × 10^6 CFU/mL) to each well. In this manner, the final concentration of DMSO in each well was 1%. The plate was subsequently incubated at 37 °C for 24 h. The resazurin assay was used for assessment of drug susceptibility of NCL259 and NCL265 (Supplementary Table S1–S6). The same method was also used to test the MICs of NCL259 or NCL265 in the presence of PMB against a range of Gram-negative reference strains (E. coli ATCC 25922, E. coli ATCC 10763, P. aeruginosa PAO1, P. aeruginosa ATCC 27853, A. baumannii ATCC 12457, A. baumannii ATCC 19606, K. pneumoniae ATCC 4352 and K. pneumoniae ATCC 33495). Stock solutions were prepared prior to use (25.6–0.25 mg/mL for robenidine analogues; 12.8–0.25 mg/mL for PMB). The interaction of two antibiotics was calculated as the fractional inhibitory concentration index (FICI) using the following formula:(1) FICI=MICA in combination/MICA alone+MICB in combination/MICB alone where A is NCL259 or NCL265 and B is PAβN or PMB. According to FICI calculations, the interaction between two compounds were interpreted as follows: synergistic (FICI ≤ 0.5); additive or partially synergistic (0.5 < FICI ≤ 1); indifferent (1 < FICI ≤ 4); and antagonistic (FICI > 4), as described previously. The dose reduction index (DRI) was used to describe the difference between the effective doses of NCL259 or NCL265 in combination with PMB or PAβN in comparison to their individual doses, using the following formula:(2) DRI=MICA alone/MICA in combination
(§4) Evaluation of DRI is important clinically because it can allow the dose of a potentially toxic drug to be lowered in combination with another compound without reducing the drug’s efficacy. A DRI higher than 1 is viewed as beneficial.

P. aeruginosa PAO1 = test: Checkerboard assay with PMB; assay type: cell-based, Pseudomonas aeruginosa; details: for MIC, Combination: NCL259 or NCL265 with PMB; for Combination Effect / FICI: with PMB
Method: as §3, §4

[1] = tested on: Companion animal ExPEC (n = 51); test: MIC, broth micro-dilution, clinical isolates; assay type: cell-based, Escherichia coli; details: for MIC range: Companion animal ExPEC (n = 51); for MIC50 / MIC90: Escherichia coli
Method: as §1, §2

[2] = tested on: Porcine/bovine ETEC (n = 83); test: MIC, broth micro-dilution, clinical isolates; assay type: cell-based, Escherichia coli; details: for MIC50 / MIC90: Escherichia coli; for MIC range: Porcine/bovine ETEC (n = 83)
Method: as §1, §2

[3] = tested on: 51 clinical ExPEC isolates from companion animals and 83 porcine and bovine ETEC isolates; test: MIC, broth micro-dilution, all animal clinical isolates; assay type: cell-based, Escherichia coli; details: ExPEC and ETEC isolates together
Method: A variety of Gram-negative reference strains (E. coli ATCC 25922, E. coli ATCC 10763, P. aeruginosa PAO1, P. aeruginosa ATCC 27853, A. baumannii ATCC 12457, A. baumannii ATCC 19606, K. pneumoniae ATCC 4352 and K. pneumoniae ATCC 33495) were used for initial screening and combination testing with PMB. The organisms were speciated using biochemical testing and MALDI-TOF mass spectrometry (Bruker, Preston, VIC, Australia). Activity testing of NCL259 and NCL265 was also carried out on 51 extraintestinal clinical E. coli isolates from companion animals, and 83 porcine and bovine enterotoxigenic E. coli (ETEC) isolates from the Australian Centre for Antimicrobial Resistance Ecology collection. […]
MICs for NCL259 and NCL265 (serial two-fold dilutions commencing at 256 µg/mL) were determined (in duplicate) in round bottom 96–well microtitre trays (Sarstedt 82.1582.001), using the broth micro-dilution method recommended by the Clinical and Laboratory Standards Institute (CLSI). […] The MIC for ampicillin against each isolate was determined for each test to serve as an internal quality control. The MICs of isolates were determined by visual reading and using an EnSpire Multimode Plate Reader 2300 at A600nm.

K. oxytoca 13GNB–582 = test: MIC, broth micro-dilution; assay type: cell-based; details: Klebsiella oxytoca, read-out: MIC, Single Drug
Method: as §2, §3

K. pneumoniae 13GNB–429 = test: MIC, broth micro-dilution; assay type: cell-based; details: Klebsiella pneumoniae, read-out: MIC, Single Drug
Method: as §2, §3

K. pneumoniae 13GNB–550 = test: MIC, broth micro-dilution; assay type: cell-based; details: Klebsiella pneumoniae, read-out: MIC, Single Drug
Method: as §2, §3

[4] = tested on: Wild-type (E. coli BW 25113); test: MIC, efflux-pump wild-type; assay type: cell-based; details: Escherichia coli, read-out: MIC Values
Method: as §1
as §2, with “Additionally, considering the low solubility of robenidine and its analogues in aqueous solutions, two-fold serial dilutions of stock solutions of these compounds were prepared in 100% DMSO [21].” left out

[5] = tested on: K. pneumoniae 13GNB–429, K. pneumoniae 13GNB–550 and K. oxytoca 13GNB–582; test: MIC, three resistant Klebsiella isolates; assay type: cell-based; details: three resistant Klebsiella spp. isolates
Method: as §2

K. pneumoniae ATCC 4352 = tested on: K. pneumoniae ATCC 4352; set-up: method as in PMID 30318716; details: after 30 min treatment; cited from earlier work

Compound	MIC (A. baumannii ATCC 12457) [µg/mL]	MIC, Combination (P. aeruginosa ATCC 27853) [µg/mL]	Combination Effect (P. aeruginosa ATCC 27853)	FICI (P. aeruginosa ATCC 27853)	MIC, Combination (P. aeruginosa PAO1) [µg/mL]	Combination Effect (P. aeruginosa PAO1)	FICI (P. aeruginosa PAO1)	MIC range [1] [µg/mL]	MIC50 [1] [µg/mL]	MIC90 [1] [µg/mL]	MIC50 [2] [µg/mL]	MIC90 [2] [µg/mL]	MIC range [2] [µg/mL]	MIC range [3] [µg/mL]	MIC (K. oxytoca 13GNB–582) [µg/mL]	MIC (K. pneumoniae 13GNB–429) [µg/mL]	MIC (K. pneumoniae 13GNB–550) [µg/mL]	MIC [4] [µg/mL]	MIC [5] [µg/mL]	MIC ([5]; read-out: MIC) [µg/mL]	other results
[H]/N=C(\N)NN=C(CC1CCCCC1)c1ccc(Cl)cc1 [NCL259, (E)-2-(1-(4-chlorophenyl)-2-cyclohexylethylidene)hydrazine-1-carboximidamide]	8	2	Additivity (additive or partially synergistic, 0.5 < FICI ≤ 1)	0.531	1	Additivity (additive or partially synergistic, 0.5 < FICI ≤ 1)	0.516	16 to 64	32	32	8	8	4 to 64	4 to 64	> 256	> 256	> 256	64	> 256	> 256	Dose Reduction Index (DRI) PMB:NCL259 (P. aeruginosa ATCC 27853; PMB + NCL259): 32; Dose Reduction Index (DRI) PMB:NCL259 (P. aeruginosa PAO1; PMB + NCL259): 64; reduction in CFU (bactericidal) (K. pneumoniae ATCC 4352): > 5 log 10
[H]/N=C(\N)NN=C(CCCCCC)c1ccc(Cl)cc1 [NCL265, (E)-2-(1-(4-chlorophenyl)heptylidene)hydrazine-1-carboximidamide]	2	0.5	Additivity (additive or partially synergistic, 0.5 < FICI ≤ 1)	0.516	0.25	Additivity (additive or partially synergistic, 0.5 < FICI ≤ 1)	0.504	4 to 16	32	32	8	8	2 to 16	2 to 16	> 256	> 256	> 256	16	> 256	> 256	Dose Reduction Index (DRI) PMB:NCL265 (P. aeruginosa ATCC 27853; PMB + NCL265): 64; Dose Reduction Index (DRI) PMB:NCL265 (P. aeruginosa PAO1; PMB + NCL265): 256; reduction in CFU (bactericidal) (K. pneumoniae ATCC 4352): > 5 log 10
